One series relates to Septoria nodorum. The experiment in a line: Septoria nodorum (wheat glume blotch), wheat leaf segment assay, preventive. The settings on record: Parastagonospora nodorum, foliar, 96 h; 200 ppm; wheat leaf segments; assessed four days after inoculation; read-out: control of fungal infection, Septoria nodorum. The series is classed as in vivo.
The test system of a further series is Plasmopara viticola. Briefly: Plasmopara viticola (downy mildew of grapevine), grapevine leaf disk assay, preventive. The class given is in vivo. The note with it: foliar, 168 h, 200 ppm, grapevine leaf disks, assessed seven days after inoculation, read-out: control of fungal infection, Plasmopara viticola.
In series [1] the test system is Erysiphe graminis f.sp. tritici. The experiment in a line: Erysiphe graminis f.sp. tritici (wheat powdery mildew), wheat leaf segment assay, preventive. The series is classed as in vivo. The note with it: Blumeria graminis, foliar, 96 h; 200 ppm; wheat leaf segments; assessed four days after inoculation; read-out: control of fungal infection, Etysiphe graminis f.sp. tritici.

Series [2] has as its system Puccinia recondita f.sp. tritici. The experiment in a line: Puccinia recondita f.sp. tritici (wheat brown rust), wheat leaf segment assay, preventive. The series is classed as in vivo. The settings on record: foliar, 216 h, 200 ppm, wheat leaf segments, assessed nine days after inoculation, read-out: control of fungal infection, Puccinia recondite f.sp. tritici.
In the next series the test system is Septoria tritici. The experiment in a line: Septoria tritici (leaf blotch), liquid culture growth inhibition in nutrient broth. The class given is cell-based. The note with it: Zymoseptoria tritici; 200 ppm; PDB broth, 24 C; inhibition of growth determined photometrically after 72 hrs; read-out: control of fungal infection, Septoria tritici.
For another series, the system named is Pyricularia oryzae. Briefly: whole plant or invertebrate. The settings on record: foliar, 96 h, read-out: control of fungal infection, Pyricularia oryzae. The class given is in vivo.
A further series concerns Phytophthora infestans. Briefly: whole plant or invertebrate. The settings on record: in Solanum lycopersicum, foliar, 96 h, read-out: control of fungal infection, Phytophthora infestans. The class given is in vivo.
In a further series the test system is Pythium ultimum. Briefly: Pythium ultimum (Damping off), liquid culture growth inhibition in potato dextrose broth. The series is classed as cell-based. The settings on record: Globisporangium ultimum; 20 ppm; potato dextrose broth, 24° C.; inhibition of growth determined photometrically after 48 hours; read-out: control of fungal infection, Pythium ultimum.
In the next series the test system is Fusarium culmorum. The experiment in a line: Fusarium culmorum (root rot), liquid culture growth inhibition in nutrient broth. The note with it: PDB broth, 24 C, inhibition of growth determined photometrically after 48 hrs, read-out: control of fungal infection, Fusarium culmorum. The class given is cell-based. The procedure, abridged: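 Fusarium culmorum conidia from cryogenic storage were mixed into potato dextrose broth and added to compound pre-dispensed from DMSO (diluted in 0.025% Tween20). Incubated at 24 C in the dark; growth inhibition read photometrically after 48 hrs.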

The test system of another series is Botrytis cinerea. Briefly: Botrytis cinerea (grey mould), bean leaf disk assay, preventive. The class given is in vivo. The settings on record: foliar, 96 h, 200 ppm, bean leaf disks, assessed four days after inoculation, read-out: control of fungal infection, Botrytis cinerea.

14 molecules from patent US8507509B2, “Saturated and insaturated bi- or tricyclic aryloxyacetamine derivatives and their use as fungicides” (Syngenta Crop Protection LLC, priority 2007, dated 2013) can be followed below.

Each structure is given as a SMILES string.

For the molecule `C#Cc1cnc2ccc(OC(SC)C(=O)NC(C)(C)C=NOCC)cc2c1` (single isomer, unassigned) [Compound No. 119, N-(2-Ethoxyimino-1,1-dimethyl-ethyl)-2-(3-ethynyl-quinolin-6-yloxy)-2-methylsulfanyl-acetamide], the pest or weed control at 200 ppm (in the series with Septoria nodorum; with Plasmopara viticola; in series [1]; in [2]; with Pyricularia oryzae; in the series on Phytophthora infestans) was ≥ 60% throughout. Moreover, in the series with Septoria tritici, the inhibition of growth at 200 ppm was ≥ 60%. The inhibition of growth at 20 ppm with Pythium ultimum was ≥ 60%.

For `CON=CC(C)(C)NC(=O)C(Oc1ccc2ncc(Br)cc2c1)SC` (stereo not drawn) [Compound No. 15, 2-(3-Bromo-quinolin-6-yloxy)-N-(2-methoxyimino-1,1-dimethyl-ethyl)-2-methylsulfanyl-acetamide], the pest or weed control at 200 ppm (in the series with Plasmopara viticola; in series [1]; with Pyricularia oryzae; in the series with Phytophthora infestans) was ≥ 60% each time. In addition, the inhibition of growth at 200 ppm in the series on Septoria tritici is ≥ 60%. Further, in the series with Pythium ultimum, the inhibition of growth at 20 ppm was ≥ 60%.

For the molecule `CCON=CC(C)(C)NC(=O)C(Oc1ccc2ncc(Br)cc2c1)SC` (stereo not drawn) [Compound No. 16, 2-(3-Bromo-quinolin-6-yloxy)-N-(2-ethoxyimino-1,1-dimethyl-ethyl)-2-methylsulfanyl-acetamide], the pest or weed control at 200 ppm (in series [1]; with Pyricularia oryzae; in the series on Phytophthora infestans) was ≥ 60% in each case. The inhibition of growth at 20 ppm in the series on Pythium ultimum is ≥ 60%.

With `CCON=CC(C)(C)NC(=O)C(Oc1cc(C)c2ncc(Br)cc2c1)SC` (stereo not drawn) [Compound No. 27, 2-(3-bromo-8-methyl-quinolin-6-yloxy)-N-(2-ethoxyimino-1,1-dimethyl-ethyl)-2-methylsulfanyl-acetamide], the inhibition of growth at 200 ppm with Septoria tritici was ≥ 60%. The pest or weed control at 200 ppm with Pyricularia oryzae and with Phytophthora infestans was ≥ 60% in each case.

`CSC(Oc1cc(C)c2ncc(Br)cc2c1)C(=O)NC(C)(C)C=NO` (stereo not drawn) [Compound No. 31, 2-(3-Bromo-8-methyl-quinolin-6-yloxy)-N-(2-hydroxyimino-1,1-dimethyl-ethyl)-2-methylsulfanyl-acetamide]: the pest or weed control at 200 ppm (in the series with Plasmopara viticola; in series [1]; in the series with Pyricularia oryzae; with Phytophthora infestans) was ≥ 60% each time. The inhibition of growth at 200 ppm in the series on Fusarium culmorum was ≥ 60%. In addition, the inhibition of growth at 20 ppm in the series on Pythium ultimum is ≥ 60%.

For the molecule `C=CCON=CC(C)(C)NC(=O)C(Oc1cc(C)c2ncc(I)cc2c1)SC` (stereo not drawn) [Compound No. 45, N-(2-Allyloxyimino-1,1-dimethyl-ethyl)-2-(3-iodo-8-methyl-quinolin-6-yloxy)-2-methylsulfanyl-acetamide], the pest or weed control at 200 ppm (in the series with Septoria nodorum; with Plasmopara viticola; in series [1]; in the series with Pyricularia oryzae; in the series on Phytophthora infestans) was ≥ 60% each time. For the same molecule, the inhibition of growth at 200 ppm in the series with Septoria tritici is ≥ 60%.

Regarding `CON=CC(C)(C#N)NC(=O)C(Oc1cc(C)c2ncc(I)cc2c1)SC` (stereo not drawn) [Compound No. 55, N-(1-Cyano-2-methoxyimino-1-methyl-ethyl)-2-(3-iodo-8-methyl-quinolin-6-yloxy)-2-methylsulfanyl-acetamide], the melting point lay in the range of 166 to 168 °C. Further, in the series with Septoria nodorum, the pest or weed control at 200 ppm is ≥ 60%. Also, the pest or weed control at 200 ppm with Plasmopara viticola is ≥ 60%. Further, the pest or weed control at 200 ppm in [1] was ≥ 60%. The pest or weed control at 200 ppm in series [2] is ≥ 60%. For the same molecule, the inhibition of growth at 200 ppm with Fusarium culmorum is ≥ 60%. In the series on Phytophthora infestans, the pest or weed control at 200 ppm was ≥ 60%. The inhibition of growth at 20 ppm with Pythium ultimum is ≥ 60%. Further, the pest or weed control at 200 ppm in the series on Botrytis cinerea was ≥ 60%.

Molecule `C#Cc1cnc2c(C)cc(OC(SC)C(=O)NC(C)(C#N)C=NOC)cc2c1` (stereo not drawn) [Compound No. 56, N-(1-Cyano-2-methoxyimino-1-methyl-ethyl)-2-(3-ethynyl-8-methyl-quinolin-6-yloxy)-2-methylsulfanyl-acetamide] came in with a melting point of 172 to 174 °C. Also, the pest or weed control at 200 ppm with Septoria nodorum is ≥ 60%. In addition, the pest or weed control at 200 ppm with Plasmopara viticola was ≥ 60%. The pest or weed control at 200 ppm in [1] is ≥ 60%. In addition, the pest or weed control at 200 ppm in [2] was ≥ 60%. Also, the inhibition of growth at 200 ppm in the series on Septoria tritici was ≥ 60%. Besides, the pest or weed control at 200 ppm in the series on Phytophthora infestans is ≥ 60%. Besides, the inhibition of growth at 20 ppm in the series on Pythium ultimum was ≥ 60%. For the same molecule, the pest or weed control at 200 ppm in the series with Botrytis cinerea was ≥ 60%.

Turning to `CON=CC(C)(C#N)NC(=O)C(Oc1ccc2ncc(I)cc2c1)SC` (stereo not drawn) [Compound No. 57, N-(1-Cyano-2-methoxyimino-1-methyl-ethyl)-2-(3-iodo-quinolin-6-yloxy)-2-methylsulfanyl-acetamide], the melting point lay within 59 to 64 °C. Moreover, in the series with Septoria nodorum, the pest or weed control at 200 ppm was ≥ 60%. For the same molecule, in the series with Plasmopara viticola, the pest or weed control at 200 ppm is ≥ 60%. For the same molecule, the pest or weed control at 200 ppm in [1] was ≥ 60%. Also, the pest or weed control at 200 ppm in series [2] is ≥ 60%. Further, the inhibition of growth at 200 ppm in the series with Septoria tritici was ≥ 60%. In the series with Fusarium culmorum, the inhibition of growth at 200 ppm was ≥ 60%. Further, the pest or weed control at 200 ppm in the series on Phytophthora infestans was ≥ 60%. Further, the inhibition of growth at 20 ppm with Pythium ultimum was ≥ 60%.

Take `CON=CC(C)(C)NC(=O)C(OC)Oc1ccc2ncc(I)cc2c1` (stereo not drawn) [Compound No. 72, 2-(3-Iodo-quinolin-6-yloxy)-2-methoxy-N-(2-methoxyimino-1,1-dimethyl-ethyl)-acetamide]: the melting point lay in the range of 101 to 103 °C. Further, the pest or weed control at 200 ppm in the series with Septoria nodorum is ≥ 60%. Also, the pest or weed control at 200 ppm with Plasmopara viticola was ≥ 60%. Moreover, in series [1], the pest or weed control at 200 ppm was ≥ 60%. Moreover, the pest or weed control at 200 ppm in series [2] is ≥ 60%. Also, the inhibition of growth at 200 ppm in the series with Septoria tritici was ≥ 60%. For the same molecule, the inhibition of growth at 200 ppm in the series on Fusarium culmorum was ≥ 60%. Besides, the pest or weed control at 200 ppm in the series with Phytophthora infestans was ≥ 60%. Besides, the inhibition of growth at 20 ppm in the series with Pythium ultimum was ≥ 60%. Further, in the series on Botrytis cinerea, the pest or weed control at 200 ppm is ≥ 60%.

In turn, `CON=CC(C)(C)NC(=O)C(OC)Oc1cc(C)c2ncc(I)cc2c1` (stereo not drawn) [Compound No. 73, 2-(3-Iodo-8-methyl-quinolin-6-yloxy)-2-methoxy-N-(2-methoxyimino-1,1-dimethyl-ethyl)-acetamide] had a melting point of 126 to 128 °C. Further, the pest or weed control at 200 ppm in the series on Septoria nodorum is ≥ 60%. The pest or weed control at 200 ppm in the series on Plasmopara viticola is ≥ 60%. Moreover, in [1], the pest or weed control at 200 ppm was ≥ 60%. Moreover, the pest or weed control at 200 ppm in series [2] was ≥ 60%. Further, in the series on Septoria tritici, the inhibition of growth at 200 ppm is ≥ 60%. In the series on Fusarium culmorum, the inhibition of growth at 200 ppm was ≥ 60%. In addition, the inhibition of growth at 20 ppm in the series on Pythium ultimum is ≥ 60%. Moreover, the pest or weed control at 200 ppm in the series on Botrytis cinerea was ≥ 60%.

In turn, `C#Cc1cnc2c(C)cc(OC(OC)C(=O)NC(C)(C)C=NOC)cc2c1` (stereo not drawn) [Compound No. 77, 2-(3-Ethynyl-8-methyl-quinolin-6-yloxy)-2-methoxy-N-(2-methoxyimino-1,1-dimethyl-ethyl)-acetamide] gave a melting point of 138 to 140 °C. For the same molecule, the pest or weed control at 200 ppm with Septoria nodorum is ≥ 60%. Besides, the pest or weed control at 200 ppm in the series on Plasmopara viticola is ≥ 60%. Further, the pest or weed control at 200 ppm in series [1] was ≥ 60%. In series [2], the pest or weed control at 200 ppm is ≥ 60%. Also, in the series with Septoria tritici, the inhibition of growth at 200 ppm is ≥ 60%. Also, the inhibition of growth at 200 ppm with Fusarium culmorum is ≥ 60%. Also, the pest or weed control at 200 ppm in the series with Phytophthora infestans is ≥ 60%. Further, the inhibition of growth at 20 ppm in the series on Pythium ultimum is ≥ 60%.

For the molecule `C#Cc1cnc2c(Cl)cc(OC(SC)C(=O)NC(C)(C)C=NOCC)cc2c1` (stereo not drawn) [Compound No. 116, 2-(8-Chloro-3-ethynyl-quinolin-6-yloxy)-N-(2-ethoxyimino-1,1-dimethyl-ethyl)-2-methylsulfanyl-acetamide], the pest or weed control at 200 ppm with Septoria nodorum, with Plasmopara viticola, with Pyricularia oryzae and in the series with Phytophthora infestans was ≥ 60% each time. Also, the inhibition of growth at 200 ppm with Septoria tritici was ≥ 60%. In addition, the inhibition of growth at 20 ppm with Pythium ultimum was ≥ 60%.

Consider `C#Cc1cnc2c(Cl)cc(OC(SC)C(=O)NC(C)(C)C=NOCC=C)cc2c1` (stereo not drawn) [Compound No. 117, N-(2-Allyloxyimino-1,1-dimethyl-ethyl)-2-(8-chloro-3-ethynyl-quinolin-6-yloxy)-2-methylsulfanyl-acetamide], for which the pest or weed control at 200 ppm (in the series on Septoria nodorum; in the series on Plasmopara viticola; in series [1]; in series [2]; with Pyricularia oryzae; in the series on Phytophthora infestans) was ≥ 60% throughout. For the same molecule, the inhibition of growth at 200 ppm in the series with Septoria tritici is ≥ 60%. The inhibition of growth at 20 ppm in the series on Pythium ultimum is ≥ 60%.

By melting point is commonly meant the temperature, or range, at which the solid turns liquid.
